Earlier results, collected in patent US20100056546A1, “SULFONYLUREA INHIBITORS OF ATP-SENSITIVE POTASSIUM CHANNELS” (Auspex Pharmaceuticals, Inc., priority 2008, published 2010).

Conditions: compared with glipizide; Ambrogi et al. 1972

Structure (SMILES) | activity relative to the parent compound
Cc1cnc(C(=O)NCCc2ccc(S(=O)(=O)NC(=O)N[C@H]3CCC[C@@H](O)C3)cc2)cn1 (relative stereo) [cis-3-hydroxy-glipizide] | significantly less active
Cc1cnc(C(=O)NCCc2ccc(S(=O)(=O)NC(=O)N[C@H]3CC[C@H](O)CC3)cc2)cn1 [trans-4-hydroxy-glipizide] | significantly less active
